Measured values: ChEMBL document CHEMBL5291721, “A preclinical secondary pharmacology resource illuminates target-adverse drug reaction associations of marketed drugs” (Nat Commun, 2023)

Assays:
[1] = biological target: T1, Adenosine receptor A3 (Homo sapiens, UniProt P0DMS8)
T1 sequence (P0DMS8 whole entry): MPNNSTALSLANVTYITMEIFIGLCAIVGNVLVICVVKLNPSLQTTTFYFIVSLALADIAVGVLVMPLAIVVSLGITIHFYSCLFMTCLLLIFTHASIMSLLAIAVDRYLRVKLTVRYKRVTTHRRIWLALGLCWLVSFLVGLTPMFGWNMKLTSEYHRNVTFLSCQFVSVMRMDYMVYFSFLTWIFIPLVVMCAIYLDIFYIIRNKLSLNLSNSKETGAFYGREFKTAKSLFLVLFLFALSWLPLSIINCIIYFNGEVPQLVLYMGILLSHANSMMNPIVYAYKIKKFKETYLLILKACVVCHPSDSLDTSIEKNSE

[2] = biological target: T2, Alpha-2A adrenergic receptor (Homo sapiens, UniProt P08913); type: functional, cell-based
T2 sequence (P08913 whole entry): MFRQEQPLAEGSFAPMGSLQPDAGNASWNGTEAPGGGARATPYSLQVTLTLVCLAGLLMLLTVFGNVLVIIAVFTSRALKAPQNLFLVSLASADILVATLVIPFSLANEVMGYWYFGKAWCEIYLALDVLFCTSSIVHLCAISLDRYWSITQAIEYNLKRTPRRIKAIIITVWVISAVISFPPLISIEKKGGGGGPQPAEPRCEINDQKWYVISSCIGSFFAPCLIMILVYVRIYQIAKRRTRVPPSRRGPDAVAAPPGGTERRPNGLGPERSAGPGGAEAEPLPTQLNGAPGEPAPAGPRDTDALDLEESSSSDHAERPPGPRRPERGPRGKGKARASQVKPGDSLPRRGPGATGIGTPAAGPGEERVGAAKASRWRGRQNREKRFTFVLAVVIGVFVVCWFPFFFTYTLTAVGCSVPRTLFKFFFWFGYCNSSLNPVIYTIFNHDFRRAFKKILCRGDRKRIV

[3] = biological target: T3, Cannabinoid receptor 1 (Homo sapiens, UniProt P21554); type: functional, cell-based
T3 sequence (P21554 whole entry): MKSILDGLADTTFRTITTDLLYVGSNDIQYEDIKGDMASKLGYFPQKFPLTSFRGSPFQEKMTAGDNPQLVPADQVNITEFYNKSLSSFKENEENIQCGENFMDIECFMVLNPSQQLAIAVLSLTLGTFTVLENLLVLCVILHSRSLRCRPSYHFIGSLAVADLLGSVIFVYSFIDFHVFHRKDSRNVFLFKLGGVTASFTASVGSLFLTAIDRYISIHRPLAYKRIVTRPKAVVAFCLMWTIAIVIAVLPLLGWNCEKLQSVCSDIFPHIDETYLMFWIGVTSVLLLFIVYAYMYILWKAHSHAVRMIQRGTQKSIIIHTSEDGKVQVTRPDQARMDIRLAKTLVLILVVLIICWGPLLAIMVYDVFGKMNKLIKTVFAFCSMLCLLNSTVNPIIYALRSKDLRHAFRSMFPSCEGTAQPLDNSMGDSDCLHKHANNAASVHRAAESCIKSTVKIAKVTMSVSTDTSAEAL

[4] = biological target: T3, Cannabinoid receptor 1; type: functional, cell-based; remark: listed apart in the source
[5] = biological target: D(1A) dopamine receptor (Homo sapiens, UniProt P21728); type: functional, cell-based
D(1A) dopamine receptor, sequence (P21728 whole entry): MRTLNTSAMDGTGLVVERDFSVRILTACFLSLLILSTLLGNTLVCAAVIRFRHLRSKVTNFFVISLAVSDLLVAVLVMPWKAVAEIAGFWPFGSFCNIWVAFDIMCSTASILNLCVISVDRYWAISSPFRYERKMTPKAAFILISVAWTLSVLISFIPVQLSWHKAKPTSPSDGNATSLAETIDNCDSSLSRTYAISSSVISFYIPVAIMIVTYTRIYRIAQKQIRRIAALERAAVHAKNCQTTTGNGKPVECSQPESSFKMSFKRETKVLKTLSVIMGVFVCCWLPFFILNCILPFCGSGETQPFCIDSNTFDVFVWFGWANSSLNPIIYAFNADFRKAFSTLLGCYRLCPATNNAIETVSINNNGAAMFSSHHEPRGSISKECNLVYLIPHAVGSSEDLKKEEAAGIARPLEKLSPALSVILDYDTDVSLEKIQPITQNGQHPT

[6] = biological target: T4, 5-hydroxytryptamine receptor 1A (Homo sapiens, UniProt P08908); type: functional, cell-based
T4 sequence (P08908 whole entry): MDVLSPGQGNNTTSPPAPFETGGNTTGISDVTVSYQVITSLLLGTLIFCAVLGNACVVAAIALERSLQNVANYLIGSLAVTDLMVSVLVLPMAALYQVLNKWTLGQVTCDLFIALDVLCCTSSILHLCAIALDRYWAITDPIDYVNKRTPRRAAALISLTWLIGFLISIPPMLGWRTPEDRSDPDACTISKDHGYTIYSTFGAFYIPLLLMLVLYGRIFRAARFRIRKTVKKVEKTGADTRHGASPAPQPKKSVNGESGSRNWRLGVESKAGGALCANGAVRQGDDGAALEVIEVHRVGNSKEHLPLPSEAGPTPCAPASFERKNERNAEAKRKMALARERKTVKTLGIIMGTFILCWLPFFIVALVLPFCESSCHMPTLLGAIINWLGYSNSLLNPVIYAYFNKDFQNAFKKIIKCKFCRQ

[7] = biological target: 5-hydroxytryptamine receptor 2B (Homo sapiens, UniProt P41595); type: functional, cell-based
5-hydroxytryptamine receptor 2B, sequence (P41595 whole entry): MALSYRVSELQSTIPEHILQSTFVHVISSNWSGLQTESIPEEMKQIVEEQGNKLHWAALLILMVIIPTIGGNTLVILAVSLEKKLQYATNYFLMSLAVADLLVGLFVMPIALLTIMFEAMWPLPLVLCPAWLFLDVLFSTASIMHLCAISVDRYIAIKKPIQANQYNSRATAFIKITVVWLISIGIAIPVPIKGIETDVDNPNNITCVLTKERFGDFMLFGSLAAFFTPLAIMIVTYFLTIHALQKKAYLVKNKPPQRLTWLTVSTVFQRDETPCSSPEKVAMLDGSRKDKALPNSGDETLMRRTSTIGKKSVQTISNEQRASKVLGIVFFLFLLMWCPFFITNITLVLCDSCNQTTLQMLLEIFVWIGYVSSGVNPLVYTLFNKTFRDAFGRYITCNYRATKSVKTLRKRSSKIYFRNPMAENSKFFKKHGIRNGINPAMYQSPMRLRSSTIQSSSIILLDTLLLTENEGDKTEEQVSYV

[8] = biological target: T5, 5-hydroxytryptamine receptor 3A (Homo sapiens, UniProt P46098); type: functional
T5 sequence (P46098 whole entry): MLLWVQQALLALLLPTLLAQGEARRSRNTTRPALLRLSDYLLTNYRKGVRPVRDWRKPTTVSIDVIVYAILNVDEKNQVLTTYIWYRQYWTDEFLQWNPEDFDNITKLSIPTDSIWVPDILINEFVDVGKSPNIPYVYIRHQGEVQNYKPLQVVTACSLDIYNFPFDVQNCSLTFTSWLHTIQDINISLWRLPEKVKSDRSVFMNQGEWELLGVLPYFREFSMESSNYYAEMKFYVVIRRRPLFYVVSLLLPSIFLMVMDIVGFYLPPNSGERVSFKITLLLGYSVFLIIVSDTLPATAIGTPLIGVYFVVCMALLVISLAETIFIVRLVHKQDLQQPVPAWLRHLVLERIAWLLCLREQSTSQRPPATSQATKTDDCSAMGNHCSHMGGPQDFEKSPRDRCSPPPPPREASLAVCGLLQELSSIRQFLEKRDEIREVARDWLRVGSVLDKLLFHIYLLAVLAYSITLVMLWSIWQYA

[9] = biological target: Delta-type opioid receptor (Homo sapiens, UniProt P41143)
Delta-type opioid receptor, sequence (P41143 whole entry): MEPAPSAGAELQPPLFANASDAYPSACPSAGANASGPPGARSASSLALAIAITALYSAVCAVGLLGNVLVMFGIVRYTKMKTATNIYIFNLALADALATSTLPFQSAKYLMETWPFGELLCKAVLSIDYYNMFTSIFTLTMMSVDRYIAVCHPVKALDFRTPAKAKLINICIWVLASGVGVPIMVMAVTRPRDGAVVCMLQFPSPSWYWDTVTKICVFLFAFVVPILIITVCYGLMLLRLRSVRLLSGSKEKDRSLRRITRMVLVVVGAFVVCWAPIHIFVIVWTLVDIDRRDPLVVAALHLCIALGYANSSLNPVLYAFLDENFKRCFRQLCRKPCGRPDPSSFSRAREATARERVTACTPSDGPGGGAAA

[10] = biological target: T6, Muscarinic acetylcholine receptor M2 (Homo sapiens, UniProt P08172)
T6 sequence (P08172 whole entry): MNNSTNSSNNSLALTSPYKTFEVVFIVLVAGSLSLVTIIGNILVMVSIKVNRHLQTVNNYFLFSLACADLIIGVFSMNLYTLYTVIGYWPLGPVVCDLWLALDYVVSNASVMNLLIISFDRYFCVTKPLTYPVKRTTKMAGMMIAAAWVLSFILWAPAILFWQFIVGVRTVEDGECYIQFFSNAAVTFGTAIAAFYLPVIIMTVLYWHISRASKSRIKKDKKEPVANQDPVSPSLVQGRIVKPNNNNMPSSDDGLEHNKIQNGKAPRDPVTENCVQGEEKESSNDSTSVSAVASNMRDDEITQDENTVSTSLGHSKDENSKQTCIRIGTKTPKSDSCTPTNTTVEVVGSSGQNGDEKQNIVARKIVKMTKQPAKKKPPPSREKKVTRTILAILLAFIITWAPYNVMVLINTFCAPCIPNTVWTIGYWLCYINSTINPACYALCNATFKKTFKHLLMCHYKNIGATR

[11] = biological target: T6, Muscarinic acetylcholine receptor M2; type: functional, cell-based
Note: assay procedure not described here.

For C[N+](C)(C)CCOC(N)=O [CARBAMOYLCHOLINE], the AC50 [1] was over 10 µM, the AC50 [2] was over 30 µM and the AC50 [3] was over 30 µM. The AC50 [4] was over 30 µM, the AC50 [5] was over 30 µM and the AC50 [6] was 5.95 µM. For the same compound, the AC50 [7] was over 30 µM, the AC50 [8] was over 10 µM and the AC50 [9] was over 30 µM.
For NS(=O)(=O)c1cc2c(cc1Cl)NC(C1CC3C=CC1C3)NS2(=O)=O (centres undefined) [CYCLOTHIAZIDE], the AC50 [10] was over 30 µM.
Nc1nc2c(ncn2CCC(CO)CO)c(=O)[nH]1 [PENCICLOVIR] was tested, and the AC50 [10] was over 30 µM.
CN(C)CCCN1c2ccccc2Sc2ccccc21 [PROMAZINE] was tested, and the AC50 [1] was over 30 µM, the AC50 [2] was over 10 µM and the AC50 [11] was over 10 µM. For the same compound, the AC50 [3] was over 30 µM, the AC50 [4] was over 30 µM and the AC50 [5] was over 10 µM. It also gave an AC50 [6] of over 10 µM, an AC50 [7] of 5.7 µM and an AC50 [8] of over 10 µM. It also gave an AC50 [9] of over 10 µM.
With N[C@@H](CSCC(=O)O)C(=O)O [CARBOCYSTEINE] the AC50 [1] was over 30 µM, the AC50 [2] was over 30 µM and the AC50 [11] was over 30 µM. The AC50 [3] was over 30 µM, the AC50 [4] was over 30 µM and the AC50 [5] was over 30 µM. It also gave an AC50 [6] of over 30 µM, an AC50 [7] of over 30 µM and an AC50 [8] of over 30 µM. It also gave an AC50 [9] of over 30 µM.
O=C(NC1CCN(CCCCC2(C(=O)NCC(F)(F)F)c3ccccc3-c3ccccc32)CC1)c1ccccc1-c1ccc(C(F)(F)F)cc1 [LOMITAPIDE] showed an AC50 [10] of 22.6 µM.
With C[C@@H]1O[C@@H](OC[C@H]2O[C@@H](Oc3c(-c4ccc(OCCO)c(OCCO)c4)oc4cc(OCCO)cc(O)c4c3=O)[C@H](O)[C@@H](O)[C@@H]2O)[C@H](O)[C@H](O)[C@H]1O [TROXERUTIN] the AC50 [10] was over 30 µM.
Work on Cn1cc[nH]c1=S [METHIMAZOLE] yielded an AC50 [10] of over 30 µM.
CC(C)Cc1ccc(C(C)C(=O)NO)cc1 (centres undefined) [IBUPROXAM] gave an AC50 [10] of over 30 µM.
Work on CN(CCCN1c2ccccc2CCc2ccccc21)CC(=O)c1ccc(Cl)cc1 [LOFEPRAMINE] yielded an AC50 [1] of 18 µM, an AC50 [2] of over 30 µM and an AC50 [11] of over 30 µM. For the same compound, the AC50 [3] was over 30 µM, the AC50 [4] was 3.5 µM and the AC50 [5] was over 30 µM. The AC50 [6] was over 30 µM, the AC50 [7] was over 30 µM and the AC50 [8] was over 30 µM. It also gave an AC50 [9] of 30 µM.
NS(=O)(=O)c1cc(Cl)c(Cl)c(S(N)(=O)=O)c1 [DICHLORPHENAMIDE] gave an AC50 [1] of over 10 µM, an AC50 [2] of over 10 µM and an AC50 [11] of over 10 µM. For the same compound, the AC50 [3] was over 30 µM, the AC50 [5] was over 10 µM and the AC50 [6] was over 10 µM. For the same compound, the AC50 [7] was over 10 µM, the AC50 [8] was over 30 µM and the AC50 [9] was over 30 µM.
